Source: patent publication US4238491A (priority 1977, dated 1980)
Structures can show the parent of a compound that is named as a salt. Where two headings read alike, the source gives them in different places.

Columns and labels:
[1] = tested on: blood pressure of SHR; test: Antihypertensive effect by single administration, SHR, direct cannulation; format: in vivo, rat (spontaneously hypertensive rats; details: for Rate of Effects (relative to MR): from DB20; for ED (20% blood pressure decrease): Rattus norvegicus, read-out: DB20 (20% blood pressure descending dose)
Description: The effect was examined through both direct and modified tail-cuff methods using male SHRs aged 25 to 30 weeks and weighing about 300 g.
In the direct cannulation method, polyethylene cannules were inserted in femoral arteries of the conscious unanesthesized SHRs under back-fixation,and MR solution was administered in an amount of 0.1 mg/100 g of weight for venous injection, and 1 ml/100 g of weight for oral administration. Changes in the blood pressure over 6 hours were measured with a multi-purpose polygraph RM-85 made by NIHON KODEN Co., Ltd. MR was dissolved in 0.9% NaCl aqueous solution with 1 N-HCl, and the solution was neutralized for use.

[2] = tested on: hypertension; details: cited from earlier work; for antihypertensive effect / side effects: remedies for hypertension
[3] = in vivo; format: in vivo, rat (SD (SPF)); details: rat, in vivo; oral sub-acute, rats; read-out: ineffective dose
Description: All the rats were observed daily and general symptoms noted. Weight was measured daily, average food-intake once every three days, and average water-intake once every two days.

[4] = converted from FIG. 15 data to 20 mg/kg basis
Description: Blood was drawn from branchial vein of dogs, vein of ear of rabbits and carotic artery of rats after slaughter. Urine was collected with urine bladder catheter for rabbits and metabolic cages for rats. Gathering bile was performed with biliary duct cannulation without anesthesia.

[5] = tested on: rats; details: in connection with RCN; cited from earlier work

## C[N+](C)(C)CCCCCC[N+](C)(C)C [Hexamethonium chloride]
[1]; I.V.
  Rate of Effects (relative to MR): 0.08
[1]; P.O.
  Rate of Effects (relative to MR): 0.04
[1]; iv
  ED (20% blood pressure decrease): 39.7 mg/kg
[1]; po
  ED (20% blood pressure decrease): 320 mg/kg

## NNc1nncc2ccccc12 [Hydralazine hydrochloride]
[1]; I.V.
  Rate of Effects (relative to MR): 11.7
[1]; P.O.
  Rate of Effects (relative to MR): 1.85
[1]; iv
  ED (20% blood pressure decrease): 0.3 mg/kg
[1]; po
  ED (20% blood pressure decrease): 6.4 mg/kg

## COc1cc2[nH]c3c(c2cc1OC)CCN1C[C@H]2[C@H](C)OC=C(C(=O)OCCN(C)C)[C@H]2C[C@H]31.Cl.Cl [Dimethylaminoethyl reserpilinate dihydrochloride]
[1]; I.V.
  DB20 (20% blood pressure descending dose): 415.7 mg/kg
  Rate of Effects (relative to MR): 0.01
[1]; P.O.
  DB20 (20% blood pressure descending dose): 625.2 mg/kg
  Rate of Effects (relative to MR): 0.02

## COC(=O)[C@H]1[C@H]2C[C@@H]3c4[nH]c5cc(OC)ccc5c4CCN3C[C@H]2C[C@@H](OC(=O)c2cc(OC)c(OC)c(OC)c2)[C@@H]1OC [RSP, Reserpine]
[1]; I.V.
  Rate of Effects (relative to MR): 17.7
[1]; P.O.
  Rate of Effects (relative to MR): 3.11
[1]; iv
  ED (20% blood pressure decrease): 0.2 mg/kg
[1]; po
  ED (20% blood pressure decrease): 3.8 mg/kg
[2]
  antihypertensive effect: prolonged antihypertensive effect
  side effects: uneasiness due to central nervous system depression, depressed state and loss of vitality

## C[C@](N)(Cc1ccc(O)c(O)c1)C(=O)O [L-alpha-methyl-dopa]
[1]; I.V.
  Rate of Effects (relative to MR): 0.01
[1]; P.O.
  Rate of Effects (relative to MR): 0.01
[1]; iv, I.V.
  ED (20% blood pressure decrease): 303 mg/kg
[1]; po, P.O.
  ED (20% blood pressure decrease): 1740 mg/kg

## NS(=O)(=O)c1cc2c(cc1Cl)NC(C(Cl)Cl)NS2(=O)=O (stereo not shown) [Trichlormethiazide]
[1]; I.V.
  Rate of Effects (relative to MR): 0.05
[1]; P.O.
  Rate of Effects (relative to MR): 0.07
[1]; iv, I.V.
  ED (20% blood pressure decrease): 79.8 mg/kg
[1]; po, P.O.
  ED (20% blood pressure decrease): 150 mg/kg

## COC(=O)[C@H]1[C@H]2C[C@@H]3c4[nH]c5cc(OC)ccc5c4CCN3C[C@H]2C[C@@H](OC(=O)/C=C/c2cc(OC)c(OC)c(OC)c2)[C@@H]1OC [RCN, Rescinnamin]
[1]; iv
  ED (20% blood pressure decrease): 1.3 mg/kg
[1]; po
  ED (20% blood pressure decrease): 9.7 mg/kg
[3]
  NOAEL: 6 mg/kg
[4]
  Area under the Curve of MR Content in Serum: 20.2
[5]
  pathological changes in adrenal and liver: not reported
[2]
  antihypertensive effect: prolonged antihypertensive effect
  side effects: uneasiness due to central nervous system depression, depressed state and loss of vitality
[2]; when RCN is used
  pathological change of stomach mucous: often occurs
